Patent publication US20050148627A1, “Benzopyran compounds for use in the treatment and prevention of inflammation related conditions” (priority 2003, published 2005)
“And” between values parts separate entries of the source, which are not always exact repeats. Equal entries are not always repeated.

Target: COX-1 (Homo sapiens, UniProt P23219)
Assay: biochemical

Chain of COX-1 (P23219 24-599): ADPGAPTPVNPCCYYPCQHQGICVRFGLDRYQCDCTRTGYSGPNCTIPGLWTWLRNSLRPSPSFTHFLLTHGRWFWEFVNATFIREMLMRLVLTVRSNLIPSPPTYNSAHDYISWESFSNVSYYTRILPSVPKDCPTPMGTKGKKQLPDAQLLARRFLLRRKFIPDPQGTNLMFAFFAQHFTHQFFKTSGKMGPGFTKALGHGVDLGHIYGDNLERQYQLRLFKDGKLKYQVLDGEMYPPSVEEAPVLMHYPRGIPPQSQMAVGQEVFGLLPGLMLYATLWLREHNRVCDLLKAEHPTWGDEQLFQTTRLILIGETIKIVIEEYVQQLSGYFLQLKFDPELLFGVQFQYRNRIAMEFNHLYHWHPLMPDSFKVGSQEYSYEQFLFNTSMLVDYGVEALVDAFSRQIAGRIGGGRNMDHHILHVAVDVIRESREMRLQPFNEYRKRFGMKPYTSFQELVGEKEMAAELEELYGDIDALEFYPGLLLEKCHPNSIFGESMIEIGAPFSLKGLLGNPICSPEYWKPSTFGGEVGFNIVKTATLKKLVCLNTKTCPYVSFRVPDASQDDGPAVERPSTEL

| IC50 | SMILES |
| --- | --- |
| 3.05 µM and 2.38 µM | O=C(O)C1=Cc2cc(Cl)c(Cc3ccccc3)cc2O[C@H]1C(F)(F)F (single isomer, unassigned) [Example 9l] |
| 24.1 µM | O=C(O)C1=Cc2cc(Cl)c(Cc3ccccc3)cc2O[C@@H]1C(F)(F)F (single isomer, unassigned) [Example 9m] |
| > 100 µM | COc1cc(Cl)c2c(c1)C=C(C(=O)O)[C@H](C(F)(F)F)O2 (single isomer, unassigned) [Example 17h] |
| 81.1 µM and 36.4 µM | COc1cc(Cl)c2c(c1)C=C(C(=O)O)[C@@H](C(F)(F)F)O2 (single isomer, unassigned) [Example 17i] |
| 57.9 µM and 35.5 µM | CCc1ccc2c(c1)C=C(C(=O)O)[C@@H](C(F)(F)F)O2 (single isomer, unassigned) [Example 34b] |
| > 100 µM | CCc1ccc2c(c1)C=C(C(=O)O)C(C(F)(F)F)O2 (stereo in doubt) [Example 34c, (2R)-6-ethyl-2-(trifluoromethyl)-2H-chromene-3-carboxylic acid] |
| > 500 µM | O=C(O)C1=Cc2cc(Cl)c(O)c(Cl)c2OC1C(F)(F)F (centres unmarked) [Example 1a, 6,8-dichloro-7-hydroxy-2-(trifluoromethyl)-2H-chromene-3-carboxylic acid] |
| 21 µM | O=C(O)C1=Cc2cc(Cl)c(OCc3ccccc3)c(Cl)c2OC1C(F)(F)F (centres unmarked) [Example 1g, 7-(benzyloxy)-6,8-dichloro-2-(trifluoromethyl)-2H-chromene-3-carboxylic acid] |
| < 0.137 µM and 0.347 µM and 0.112 µM | Nc1ccc(Oc2cc3c(cc2Cl)C=C(C(=O)O)C(C(F)(F)F)O3)c(F)c1 (centres unmarked) [Example 2a, 7-(4-amino-2-fluorophenoxy)-6-chloro-2-(trifluoromethyl)-2H-chromene-3-carboxylic acid] |

Continued, compound first:

| SMILES | IC50 |
| --- | --- |
| CCCc1cc(OC(F)(F)F)cc2c1OC(C(F)(F)F)C(C(=O)O)=C2 (racemic) [Example 21i, 8-propyl-6-(trifluoromethoxy)-2-(trifluoromethyl)-2H-chromene-3-carboxylic acid] | 20.5 µM and 13.6 µM |
| Cc1cc(C)c2c(c1)C=C(C(=O)O)C(C(F)(F)F)O2 (racemic) [Example 32a, 6,8-dimethyl-2-(trifluoromethyl)-2H-chromene-3-carboxylic acid] | > 100 µM and 185 µM and 204 µM and 165 µM and 128 µM |
| CCc1cc(OC(F)(F)F)cc2c1O[C@H](C(F)(F)F)C(C(=O)O)=C2 (single isomer, unassigned) [Example 21k] | 23.4 µM and 27 µM and 9.26 µM and 11 µM |
| CCc1cc(OC(F)(F)F)cc2c1O[C@@H](C(F)(F)F)C(C(=O)O)=C2 (single isomer, unassigned) [Example 21l] | > 100 µM and 115 µM and 49.6 µM |
| Cc1cc(Cl)cc2c1O[C@H](C(F)(F)F)C(C(=O)O)=C2 (single isomer, unassigned) [Example 21t] | 32.3 µM and 7.18 µM and 6.42 µM and 8.06 µM and 18.4 µM |
| Cc1cc(Cl)cc2c1O[C@@H](C(F)(F)F)C(C(=O)O)=C2 (single isomer, unassigned) [Example 21u] | > 100 µM |
| Cc1cc(C)c2c(c1)C=C(C(=O)O)[C@@H](C(F)(F)F)O2 (single isomer, unassigned) [Example 32b] | > 100 µM |
| O=C(O)C1=Cc2cc(Cl)c(OCC3CCCC3)c(Cl)c2OC1C(F)(F)F (centres unmarked) [Example 1c, 6,8-dichloro-7-(cyclopentylmethoxy)-2-(trifluoromethyl)-2H-chromene-3-carboxylic acid] | 0.543 µM and 0.143 µM |
| CC(C)(C)CCOc1c(Cl)cc2c(c1Cl)OC(C(F)(F)F)C(C(=O)O)=C2 (centres unmarked) [Example 1d, 6,8-dichloro-7-(3,3-dimethylbutoxy)-2-(trifluoromethyl)-2H-chromene-3-carboxylic acid] | 49.2 µM |
| CC(C)(C)Oc1c(Cl)cc2c(c1Cl)OC(C(F)(F)F)C(C(=O)O)=C2 (centres unmarked) [Example 1h, 7-tert-butoxy-6,8-dichloro-2-(trifluoromethyl)-2H-chromene-3-carboxylic acid] | < 0.137 µM |
| CCC(CC)COc1cc2c(cc1Cl)C=C(C(=O)O)C(C(F)(F)F)O2 (centres unmarked) [Example 2c, 6-chloro-7-(2-ethylbutoxy)-2-(trifluoromethyl)-2H-chromene-3-carboxylic acid] | 51.6 µM |
